Results as given in paper PMC7831505, “Monosubstituted Acetophenone Thiosemicarbazones as Potent Inhibitors of Tyrosinase: Synthesis, Inhibitory Studies, and Molecular Docking” (Pharmaceuticals, 2021).
“And” between values parts separate entries of the source, which are not always exact repeats. Identical values can stand only once.

Assays:
mushroom tyrosinase [1] = assay: Tyrosinase enzymatic assay (diphenolase activity, dose-response IC50); assay type: biochemical, Agaricus bisporus; conditions: for IC50: L-DOPA 1 mM as substrate, pH 6.8, 25 °C, n = 3; for Ratio of IC50 of Kojic Acid to IC50 of TSC: mushroom tyrosinase diphenolase activity
Method: In order to determine the IC50, dose–response analysis for all investigated compounds was performed. […] The enzyme was isolated from Agaricus bisporus, purchased from a local supplier in Wroclaw, and prepared as described in our previous papers, according to known procedures reported in the literature. The full description of enzyme preparation is included in the Supplementary Materials (Section 2). […] L-DOPA was dissolved in a 0.15 mM phosphoric (V) acid solution to a concentration of 5 mM. […] The isolated tyrosinase solution (0.5 mg/mL, 40,000 U/mg) was diluted 10 times in sodium phosphate buffer (0,1 M, pH 6.8). […] The optimal ionic strength and pH for tyrosinase activity were provided by 0.1 M sodium phosphate buffer (pH 6.8). […] The control sample contained the same reagents as the test samples except for the substrate. […] The concentration of L-3,4-dihydroxyphenylalanine (L-DOPA) was 1 mM in all the cases.

[2] = tested on: B16F10 murine melanoma cells; assay: Cell proliferation assay (MTT); assay type: cell-based; conditions: read-out: Inhibition of Cell Proliferation IC50
Method: In the presence of α-MSH, the cells were treated with the inhibitors after 24 h. […] Kojic acid was used as a positive control, and dimethyl sulfoxide (DMSO) was used as a solvent control. Melanin content was measured spectrophotometrically at 405 nm. […] Cells were maintained in 5% CO2 at 37 °C. Cell viability was estimated using the MTT colorimetric assay as described in our previous papers and by Bellei et al.. […] Kojic acid and DMSO were used as controls. MTT was added to wells (0.625 mg/mL, Sigma-Aldrich, Taufkirchen, Germany) for the last 4 h. Then, lysing buffer was added to dissolve insoluble formazan. The absorbance was measured (λ = 570 nm) using a Thermo Lab Multiscan RC microplate reader.

[3] = tested on: B16F10 murine melanoma cells; assay: Measurement of melanin production in α-MSH-stimulated cells; assay type: cell-based; conditions: for IC50: B16F10 cells stimulated with α-MSH 100 nM, 48 h with inhibitor, absorbance 405 nm, read-out: Inhibition of Melanin Production IC50
Method: In the presence of α-MSH, the cells were treated with the inhibitors after 24 h. […] Kojic acid was used as a positive control, and dimethyl sulfoxide (DMSO) was used as a solvent control. Melanin content was measured spectrophotometrically at 405 nm. […] Cells were maintained in 5% CO2 at 37 °C. […] The cells were seeded into a 96-well plate (5 × 10^3 cells/well) and stimulated with α-MSH (100 nM, Sigma-Aldrich, Taufkirchen, Germany). […] After 48 h of incubation with inhibitors, cells were solubilized in 1 N sodium hydroxide (1 N, 60 °C, 2 h). In order to measure melanin content, absorbance was measured (λ = 405 nm) using a microplate reader.

mushroom tyrosinase [4] = assay: Kinetic studies of tyrosinase inhibition (Lineweaver-Burk and secondary plots); assay type: biochemical, Agaricus bisporus; conditions: for Inhibition Mechanism / Inhibition Type: diphenolase activity of mushroom tyrosinase, L-DOPA; for Inhibition Type: Lineweaver-Burk plot; for Ki: n = 3, secondary plots, read-out: Ki ± Standard Error (inhibition constant for enzyme-inhibitor complex)
Method: The kinetics of the interaction between TSCs 1–12 and mushroom tyrosinase were determined. […] The inhibition type was determined through creation of the Lineweaver–Burk plot (double reciprocal plot), which enables easier analysis of the Michaelis–Menten plot. […] Inhibition constants Ki were determined from the secondary plots of km (Michaelis constant) versus the inhibitor concentration for competitive inhibition and by the secondary plots of the slope of the lines from the Lineweaver–Burk plot as a function of the inhibitor concentration for mixed-type inhibition. […] They were all competitive inhibitors, whereas meta- and ortho-substituted compounds were mixed inhibitors. The inhibition mechanism for the investigated compounds was also tested. […] L-DOPA was dissolved in a 0.15 mM phosphoric (V) acid solution to a concentration of 5 mM. […] The isolated tyrosinase solution (0.5 mg/mL, 40,000 U/mg) was diluted 10 times in sodium phosphate buffer (0,1 M, pH 6.8). […] The optimal ionic strength and pH for tyrosinase activity were provided by 0.1 M sodium phosphate buffer (pH 6.8). […] The control sample contained the same reagents as the test samples except for the substrate. […] (b) Secondary plot of km versus inhibitor concentrations for determination of Ki for competitive inhibition. (c) Plot to determine the inhibitory mechanism.

| Compound | IC50 (mushroom tyrosinase [1]) | Ratio of IC50 of Kojic Acid to IC50 of TSC (mushroom tyrosinase [1]) | IC50 ([2]; 48 h) | IC50 [3] | Inhibition Mechanism (mushroom tyrosinase [4]) | Inhibition Type (mushroom tyrosinase [4]) | IC50 ([2]; Mus musculus, B16-F10, 48 h) | IC50 ([3]; Mus musculus, B16-F10, 48 h) | Ki (mushroom tyrosinase [4]) | Inhibition Type (mushroom tyrosinase [4]; listed as Compound 3) | Inhibition Type (mushroom tyrosinase [4]; listed as Compound 9) | Ratio of IC50 for the inhibition of B16F10 cell proliferation to IC50 for the inhibition of melanin production ([3]; B16F10 cells) | Inhibition Type (mushroom tyrosinase [4]; listed as Compound 11) |
| --- | --- | --- | --- | --- | --- | --- | --- | --- | --- | --- | --- | --- | --- |
| C/C(=N/NC(N)=S)c1ccccc1 [Acetophenone TSC, acetophenone thiosemicarbazones] | 1.5 µM | 13.2 |  |  |  |  |  |  |  |  |  |  |  |
| NC(=S)N/N=C\c1ccccc1 [Benzaldehyde TSC, benzaldehyde thiosemicarbazone, reference compound] | 3.4 µM | 5.6 |  |  |  |  |  |  |  |  |  |  |  |
| C[S+](C)[O-] [DMSO, dimethyl sulfoxide] |  |  | 166 µM | 8020 µM |  |  |  |  |  |  |  |  |  |
| O=c1cc(CO)occ1O [Kojic acid, reference compound] |  |  |  |  | reversible | mixed | 153 µM | 114 µM |  |  |  |  |  |
| COc1ccccc1C(C)=NNC(N)=S [TSC 1, 2’-methoxyacetophenone thiosemicarbazone] | 12.2 µM | 1.6 |  |  | reversible | mixed-type | 45.2 µM | 39.2 µM | 5 ± 1.4 µM |  |  |  |  |
| COc1cccc(/C(C)=N/NC(N)=S)c1 [TSC 2, (E)-3’-Methoxyacetophenone thiosemicarbazone] | 1.9 µM | 10.5 |  |  | reversible | mixed-type | 22.4 µM |  | 1 ± 0.1 µM |  |  |  |  |
| COc1ccc(/C(C)=N/NC(N)=S)cc1 [TSC 3, (E)-4’-Methoxyacetophenone thiosemicarbazone] | 1.8 µM | 11.1 |  |  | reversible | competitive | 20.3 µM |  | 0.6 ± 0.01 µM | competitively |  |  |  |
| CC(=NNC(N)=S)c1ccccc1N [TSC 4, 2’-aminoacetophenone thiosemicarbazone] | 11.3 µM | 1.8 |  |  | reversible | mixed-type |  | 208 µM | 8 ± 0.9 µM |  |  |  |  |
| C/C(=N\NC(N)=S)c1cccc(N)c1 [TSC 5, (E)-3’-Aminoacetophenone thiosemicarbazone] | 0.65 µM | 30.6 |  |  | reversible | mixed-type | 150 µM | 88.9 µM | 0.6 ± 0.1 µM |  |  |  |  |
| C/C(=N\NC(N)=S)c1ccc(N)cc1 [TSC 6, (E)-4’-Aminoacetophenone thiosemicarbazone] |  |  |  |  | reversible | competitively | 155 µM | 139 µM | 0.2 ± 0.06 µM |  |  |  |  |
| CC(=NNC(N)=S)c1ccccc1O [TSC 7, 2’-hydroxyacetophenone thiosemicarbazone] | 1.2 µM | 16.5 |  | 21.7 µM | reversible | mixed-type | 37.3 µM | < 30 µM | 0.7 ± 0.1 µM |  |  |  |  |
| C/C(=N\NC(N)=S)c1cccc(O)c1 [TSC 8, (E)-3’-Hydroxyacetophenone thiosemicarbazone] | 0.95 µM | 20 and 20.9 |  |  | reversible | mixed-type | 103 µM | 69.5 µM | 0.6 ± 0.08 µM |  |  |  |  |
| C/C(=N\NC(N)=S)c1ccc(O)cc1 [TSC 9, (E)-4’-Hydroxyacetophenone thiosemicarbazone] | 0.8 µM | 20 and 24.9 |  | 25.2 µM | reversible | competitive | 115 µM | < 30 µM | 0.6 ± 0.06 µM |  | competitively | 4.6 |  |
| C/C(=N\NC(N)=S)c1ccccc1[N+](=O)[O-] [TSC 10, (E)-2’-Nitroacetophenone thiosemicarbazone] | > 150 µM | 0.1 |  |  | reversible | mixed-type | 93.2 µM | 77.8 µM | 8.6 ± 0.5 µM |  |  |  |  |
| C/C(=N\NC(N)=S)c1cccc([N+](=O)[O-])c1 [TSC 11, (E)-3’-Nitroacetophenone thiosemicarbazone] | 14.2 µM | 1.4 |  |  | reversible |  | 44.8 µM | 44 µM | 0.4 ± 0.02 µM |  |  |  | competitively |
| C/C(=N\NC(N)=S)c1ccc([N+](=O)[O-])cc1 [TSC 12, (E)-4’-Nitroacetophenone thiosemicarbazone] |  | 12.4 |  |  | reversible | mixed | 137 µM |  |  |  |  |  |  |
